Source: patent US20260345561A1, “METHODS AND COMPOSITIONS FOR USE IN TREATING AUTOSOMAL RECESSIVE POLYCYSTIC KIDNEY DISEASE (ARPKD)” (The General Hospital Corporation, priority 2022, published 2026)
“Also recorded” adds a separate entry of the source. Where two headings read alike, the source gives them in different places.

Assays:
[1] = racemic ketorolac 15 or 30 mg; Guo et al. 2015; cited from earlier work
PKHD1−/− organoids [2] = assay: CDH1+ distal tubular enlargement / cyst formation by 3D imaging of cleared whole organoids-on-a-chip; assay type: cell-based, human; details: for cyst suppression: Z-DEVD-FMK 1 μM, Quercetagetin 10 μM, rhCXCL16 1 ng/ml (FIG. 3D, E)
Description: (§1) H9 (WiCell) human ES cells, H9-derived PKHD1 mutants, and ARPKD patient-derived iPSCs (68) were maintained on hESC-qualified Geltrex (Thermo Fisher Scientific) coated plates using StemFit® Basic02 (Ajinomoto Co., Inc.) supplemented with 10 ng/ml of FGF2 (Peprotech), as previously reported (69).
Heterozygotic (PKHD1+/−) and compound homozygotic (PKHD1−/−) mutant lines were generated using methodology previously outlined (70), which generated clones of isogenic progeny via clonal expansion from single cells. PX459 plasmid encoding a Streptococcus pyogenes Cas9 and guide RNA (sgRNA) targeting the third exon of PKHD1 (5′-[…]-3′; SEQ ID NO:1) was transfected into H9 hESCs to generate the heterozygotic mutant line, which then served as the parental line to generate the compound homozygotic mutant. Transfected cells were selected by transient puromycin treatment. CRISPR/Cas9-induced mutations of individual clones were identified by deep sequencing.
The organoids were seeded onto the chip devices on day 14 of their differentiation and cultured on chip by flowing cell culture medium composed of ARMPI with GlutaMAX, 1% Antibiotic/Antimycotic solution (Gibco), and 1.5% heat-inactivated fetal bovine serum (Gibco). All cell culture medium was pre-equilibrated to the cell culture incubator environment for at least 2 hr before chip assembly and seeding. The kidney organoids-on-a-chip was then held in a cell culture incubator for 30 min under static conditions, before connecting the inlet perfusion tubing to an IPC-N peristaltic pump (Ismatech) and perfusing the cell culture media at 42.7 μl/min overnight in the incubator. The following day (day 15 of organoid differentiation), the sterile filter was removed from the perfusion line to avoid bubble formation at high perfusion speeds, and the perfusion speed was ramped up to 4.27 mL/min. Cell culture medium was changed in the reservoir every 2-3 days.
Full media exchanges were conducted every 2-3 days. Treatment of the kidney organoids-on-a-chip was started at day 16 of their differentiation until day 35.
The chip device was taken out of the incubator for fixation, and the lid was carefully removed in a sterile biosafety cabinet. The kidney organoids adherent on the surface of the ECM were rinsed with PBS, carefully overlayed with 4% PFA, and fixed for 45 min at RT. Post fixation, the samples were washed three times with 0.1% Triton-X (Sigma) for 30 min. Organoids were stained and cleared with ethyl cinnamate (Sigma), as described before (78). The following antibodies were used in these studies: anti-CDH1 (Abcam, ab11512), anti-CFTR (Sigma, HPA021939), anti-LTL (Vector lab, B-1325), anti-PODXL (R&D systems, AF1658), anti-K167 (Dako, m7248), Anti-pS6RP (Cell signaling, 2211S), anti-RAC1 (Developmental Studies Hybridoma Bank, CPTC-RAC1-2), anti-FOS (Abcam, ab190289). Samples were examined by a Zeiss TIRF/LSM 710 confocal microscopy or a Leica […] 8 confocal microscopy, and by using Imaris 3D software (Bitplane).
(§2) Data in all bar charts and dot plots are expressed as mean±s.d. Statistical analysis was done in GraphPad Prism 9, and statistical significance was attributed to values of P<0.05 as determined by one-way ANOVA with Tukey's multiple-comparisons test unless otherwise noted. Different significance levels (P values) are indicated in each figure with asterisks: *P<0.05, **P<0.01, ***P<0.001, and ****P<0.0001. […] FIG. 1F; n=74 LTL+ tubules with flow, n=66 LTL+ tubules in static culture, n=191 LTL+ tubules treated with forskolin, n=32 CDH1+ tubules with flow, n=27 CDH1+ tubules in static culture, and n=104 CDH1+ tubules treated with forskolin. FIG. 2C; n=16 tubules transfected with siControl, n=17 tubules transfected with siKIF3A.

[3] = test system: ARPKD patient-derived organoids; details: prior ARPKD organoid model from patient-derived iPS cells, static culture (ref. 17); cited from earlier work
RAC1 = details: cited from earlier work
ARFIP2 [4] = details: PKHD1−/− organoids, R-Naproxen 20 μM, day 23 (FIG. 5F)
Description: as §2, with “siKIF3A. 8 organoids transfected with siControl, and 7 organoids transfected with siKIF3A from 2 independent chips were analyzed in FIG. 2C.” for “siKIF3A.”

BAIAP2 = details: flow, R-Naproxen 20 μM
Description: (§3) Total RNA was isolated from kidney organoid samples using TRIzol (Invitrogen, #15596026). cDNA was synthesized from 500 ng of RNA using a High-capacity cDNA Reverse Transcription kit (Applied Biosystems, #4368814) according to the manufacturer's instructions. Real-time PCR was performed using iTaq SYBR green supermix (Bio-Rad, #1725124) and QuantStudio3 Real-time PCR systems. The expression of mRNA was assessed by evaluating threshold cycle (CT) values. The CT values and relative expression levels were normalized by ribosomal protein S18 (RPS18), and the relative amount of mRNA specific to each of the target genes was calculated (n=3 in each experiment).
as §2, with “siKIF3A. 8 organoids transfected with siControl, and 7 organoids transfected with siKIF3A from 2 independent chips were analyzed in FIG. 2C.” for “siKIF3A.”

ARFIP2 [5] = details: flow, R-Naproxen 20 μM
Description: as §3
as §2, with “siKIF3A. 8 organoids transfected with siControl, and 7 organoids transfected with siKIF3A from 2 independent chips were analyzed in FIG. 2C.” for “siKIF3A.”

COX = details: cited from earlier work
[6] = cited from earlier work
DUSP1 = assay: qPCR for DUSP1 (FOS downstream gene); assay type: cell-based, human; details: PKHD1−/− and ARPKD patient-derived organoids, flow, T-5224 10 μM, day 16 to 23
Description: (§4) FIG. 2J; n=4 (perfusion), n=4 (rest). FIG. 2K; n=3. […] 3 independent experiments were performed for FIG. 3E. […] FIG. 4H; n=4 (control), n=4 (ARPKD). FIG. 4I; n=4 (control), n=4 (ARPKD).

PRDM1 [7] = assay: Quantitative immunohistochemistry for PRDM1; assay type: cell-based, human; details: PKHD1−/− organoids, T-5224 10 μM, day 23 (FIG. 5F)
Description: as §4

PRDM1 [8] = assay: qPCR for PRDM1 (FOS downstream gene); assay type: cell-based, human; details: PKHD1−/− and ARPKD patient-derived organoids, flow, T-5224 10 μM, day 16 to 23
Description: as §4

FOS = details: cited from earlier work
[9] = clinical trials for arthritis / humans (ref. 45); cited from earlier work
NPTX2 = assay: qPCR for NPTX2 (FOS downstream gene); assay type: cell-based, human; details: PKHD1−/− and ARPKD patient-derived organoids, flow, T-5224 10 μM, day 16 to 23
Description: as §4

[10] = test system: ARPKD patient-derived organoids; assay: Cyst formation on cAMP induction in static patient-derived organoids; assay type: cell-based, human
Description: as §1
Kidney organoids were cultured in static condition and treated with 20 μM of forskolin (Sigma, #F6886), a cAMP inducer, from day 14 to day 35.
as §4

PKHD1−/− organoids [11] = assay: Cyst formation / tubular diameter on forskolin treatment in static culture; assay type: cell-based, human
Description: as §2, with “siKIF3A. 8 organoids transfected with siControl, and 7 organoids transfected with siKIF3A from 2 independent chips were analyzed in FIG. 2C.” for “siKIF3A.”

[12] = PKHD1−/− organoids under flow, day 16 to 35, T-5224 10 μM, NSC23766 10 μM, 2-MeOE2 5 μM (FIG. 3D, E)
[13] = PKHD1−/− organoids under flow, day 16 to 35
[14] = PKHD1−/− organoids-on-a-chip, day 16 to 35, flow, R-Naproxen 20 μM, R-Ketorolac 1 and 10 μM, T-5224 10 μM (FIG. 4B, C)
[15] = ARPKD patient-derived organoids, day 16 to 23 (FIG. 14)
[16] = PKHD1−/− (CRISPR-mutant) organoids, day 16 to 23 (FIG. 5E)
[17] = forskolin 20 μM, static (FIG. 1F right)

O=C(c1ccccc1)c1ccc2n1CCC2C(=O)O (racemic) [racemic ketorolac]
R-ketorolac level [1]: achieved likely therapeutic ranges of R-ketorolac

COc1cc2c(cc1O)CC[C@@H]1[C@@H]2CC[C@]2(C)[C@@H](O)CC[C@@H]12 [2-MeOE2, 2-Methoxyestradiol]
CDH1+ tubular enlargement (PKHD1−/− organoids [2]; [12]): significant reduction

Nc1ncnc2c1nc(Br)n2[C@@H]1O[C@@H]2COP(=O)(O)O[C@H]2[C@H]1O [8-Br-cAMP, 8-Bromoadenosine 3′,5′-cyclic monophosphate]
cyst formation in CDH1+ distal nephrons [3]: rarely developed cysts
cyst formation in LTL+ proximal tubules [3]: formed cystic structures

CCN(CC)CCCC(C)Nc1nc(C)cc(Nc2ccc3nc(C)cc(N)c3c2)n1 (centres unmarked) [NSC23766]
CDH1+ tubular enlargement (PKHD1−/− organoids [2]; [12]): significant reduction

O=c1c(O)c(-c2ccc(O)c(O)c2)oc2cc(O)c(O)c(O)c12 [Quercetagetin]
cyst suppression (PKHD1−/− organoids [2]; [13]): did not affect cyst suppression

O=C(c1ccccc1)c1ccc2n1CC[C@H]2C(=O)O [R-Ketorolac]
inhibitory effect against RAC1 (RAC1): inhibitory effect against RAC1
CDH1+ tubular enlargement (PKHD1−/− organoids [2]; [14]): significant reductions

COc1ccc2cc([C@@H](C)C(=O)O)ccc2c1 [R-Naproxen]
ARFIP2 expression (immunohistochemistry), decreased by flow (ARFIP2 [4]): rescue
RAC1 inhibition (RAC1): enhanced RAC1 inhibition
inhibitory effect against RAC1 (RAC1): inhibitory effect against RAC1
CDH1+ tubular enlargement (PKHD1−/− organoids [2]; [14]): significant reductions
cyst suppression (general statement) (PKHD1−/− organoids [2]; present data, R-Naproxen): cyst suppression
BAIAP2 expression (qPCR) (BAIAP2; [15]): rescued
BAIAP2 expression (qPCR) (BAIAP2; [16]): rescued
ARFIP2 expression (qPCR) (ARFIP2 [5]; [15]): rescued
ARFIP2 expression (qPCR) (ARFIP2 [5]; [16]): rescued
COX inhibition (COX): limited COX inhibition

COc1ccc2cc([C@H](C)C(=O)O)ccc2c1 [S-Naproxen]
RAC1 inhibitory activity (RAC1): lacks RAC1 inhibitory activity
cyst formation (PKHD1−/− organoids [2]; PKHD1−/− organoids cultured under flow, S-Naproxen 20 μM (FIG. 11)): did not inhibit cyst formation
anti-inflammatory effect [6]: has an anti-inflammatory effect

O=C(O)CCc1cc(C(=O)c2ccc(OC3CCCC3)cc2O)ccc1OCc1ccc2c(O)noc2c1 [T-5224, 3-{5-[4-(cyclopentyloxy)-2-hydroxybenzoyl]-2-[(3-hydroxy-1,2-benzisoxazol-6-yl)methoxy]phenyl}propionic acid]
DUSP1 expression (qPCR) (DUSP1): reverse expression
PRDM1 expression (immunohistochemistry), decreased by flow (PRDM1 [7]): rescue
CDH1+ tubular enlargement (PKHD1−/− organoids [2]; [12]): significant reduction
CDH1+ tubular enlargement (PKHD1−/− organoids [2]; [14]): significant reductions
PRDM1 expression (qPCR) (PRDM1 [8]): reverse expression
FOS inhibition (FOS): selective FOS inhibitor; also recorded: specific FOS inhibitor
safety profile [9]: favorable safety profile; also recorded: proven to be safe in humans
NPTX2 expression (qPCR) (NPTX2): reverse expression

C=C[C@@]1(C)CC(=O)[C@]2(O)[C@@]3(C)[C@@H](O)CCC(C)(C)[C@@H]3[C@H](O)[C@H](OC(C)=O)[C@@]2(C)O1 [forskolin]
cyst formation ([10]; ARPKD patient-derived organoids, forskolin 5, 10, 20 μM (FIGS. 6A-G)): form cysts
cyst formation in LTL+ proximal tubules ([10]; static organoids derived from ARPKD-patient iPSCs): induced cyst formation
cyst formation in CDH1+ distal nephrons [3]: rarely developed cysts
cyst formation in LTL+ proximal tubules [3]: formed cystic structures
cyst formation (PKHD1−/− organoids [11]; forskolin 20 μM (FIGS. 8A-H)): form cysts
diameter in LTL+ CDH− (proximal) tubules (PKHD1−/− organoids [11]; [17]): increases
diameter in LTL− CDH1+ (distal) tubules (PKHD1−/− organoids [11]; [17]): increases

Z-DEVD-FMK
cyst suppression (PKHD1−/− organoids [2]; [13]): marginal effect

B1: rhCXCL16: recombinant human C—X—C Motif Chemokine Ligand 16 (rhCXCL16) for CXCL16 (protein, UniProt Q9H2A7 30-254, looked up)
C-X-C motif chemokine 16: NEGSVTGSCYCGKRISSDSPPSVQFMNRLRKHLRAYHRCLYYTRFQLLSWSVCGGNKDPWVQELMSCLDLKECGHAYSGIVAHQKHLLPTSPPISQASEGASSDIHTPAQMLLSTLQSTQRPTLPVGSLSSDKELTRPNETTIHTAGHSLAAGPEAGENQKQPEKNAGPTARTSATVPVLCLLAIIFILTAALSYVLCKRRRGQSPQSSPDLPVHYIPVAPDSNT
cyst suppression (PKHD1−/− organoids [2]; [13]): did not affect cyst suppression
